pIC50: −log10 of the molar value.
The compounds below were run against human h-PGDS (Homo sapiens, UniProt O60760) (assay: Enzyme Immunoassay (EIA) method, inhibition of hematopoietic PGD2 synthase). Conditions: EIA assay, PGD2 formed from PGH2 by human h-PGDS.
Type: biochemical
Procedure: Assay 2: Enzyme Immunoassay (EIA) Method
• a. Preparation of 0.1M K2HPO4/KH2PO4 buffer (pH 7.4) • Prepare 0.1 M KH2PO4 from 1M KH2PO4 (Sigma, Cat# P-8709) • Prepare 0.1 M K2HPO4 from powder of K2HPO4 (Fisher, BP363-500) • Mix 0.1 M K2HPO4 with 0.1 M KH2PO4 to adjust pH to 7.4. • b. Preparation of 0.5% γ-globulin • Add 0.1 g of γ-globulin (Sigma, Cat# G-5009) to 20 mL 0.1 M K2HPO4/KH2PO4 buffer (pH 7.4) and make 1-mL/vial aliquots and store in −80° C. • c. Preparation of 100 mM GSH • Add 307 mg of GSH (Sigma, Cat# G-6529) to 10 mL 0.1 M K2HPO4/KH2PO4 buffer (pH 7.4) and store at −80° C. • d. Preparation of Reaction buffer: • 198 mL of 0.1M K2HPO4/KH2PO4 buffer (pH 7.4) • 2 mM GSH—Prepared from 100 mM GSH • 0.4 g Glycerol • 2 mL of 0.5% γ-globulin • Add 0.4 g of glycerol and 2 mL of 0.5% γ-globulin to 198 mL of 0.1 M K2HPO4/KH2PO4 • buffer (pH7.4). • Add 0.4 mL of 100 mM GSH to 19.6 mL reaction buffer before the assay (enough for two 96-well plates). • e. Preparation of FeCl2/citric acid stopping solution: (8 mg/mL FeCl2, 0.1 M citric acid) • Add 40 mg fresh FeCl2 (IGN, Cat# 158046) to 5 mL 0.1 M citric acid (Sigma, Cat# C0759). • f. Preparation of MOX reagent: • 10% EtOH—Add 1 mL of EtOH to 9 mL of ultra pure H2O • Dissolve 0.1 g of methoxyl amine (Cayman, Cat# 400036/) in 10% EtOH (10 mL). • Add 0.82 g of sodium acetate (Cayman, Cat#400037) to MOX solution and dissolve. II. Materials and Method • Dimethylsulfoxide (DMSO; Sigma; Cat# D2650) • Prostaglandin D2-MOX express EIA kit (Caymen Chemical, Catalog No. 500151)
Before the assay, cool down 10 mL of acetone in polypropylene tubes and empty 96 well plates in ice. All the procedures except compound dilution are performed on ice.
• 1. Dilute compound in DMSO
• 2. Dilute 2 μL of each above concentration of compound to 38 μL of reaction buffer in 96-well plates and mix. IV. Enzyme and Substrate Solution Preparation • 1 Preparation of 0.39 ng/μL enzyme solution (0.35 ng/μL at final after compound addition). • Mix 4 μL of 4 mg/mL human h-PGDS with 396 μL of reaction buffer (to give enzyme concentration 40 μg/mL). Add 46.8 μL of 40 μg/mL h-PGDS to 4.753 mL of reaction buffer to give a total volume of 4.8 mL • 2. Preparation of Substrate Solution (PGH2): Add 0.375 mL of 0.1 mg/mL of PGH2 to 1.625 mL acetone. V. Enzyme Reaction: • 1. Add 60 μL of enzyme solution to compound well and positive control (without compound) in U-bottom polypropylene plate on ice. • 2. Add 60 μL of reaction buffer and 6.6 μL of 5% DMSO in reaction buffer into negative control wells in the plate. • 3. Add 6.6 μL of diluted compound in reaction buffer to the compound wells and mix. • 4. Add 6.6 μL of 5% DMSO in reaction buffer to the positive control well. • 5. Incubate the plate in ice for at least 30 min. • 6. Add 20 μL of substrate (PGH2) solution to compound, negative and positive control wells in the U-bottom 96 well plate on ice. • 7. Dry the plate in cold room for about 25-28 min. • 8. Pipette 45 μL of enzyme solution (above) into 96-wells with dried PGH2 and mix 3 times. Incubate on the ice for 1 min. • 9. Add 45 μL of FeCl2 solution into each wells and mix. • 10. Add 90 μL of MOX solution and mix. • 11. Incubate for 30 min at 60° C. • 12. Dilute the samples 2500× with EIA buffer. VI. EIA Assay • Perform the assay according to the procedure in EIA kit provided by Cayman. Total PGD2 levels (pg/mL) were determined in the samples by EIA kits (Caymen Chemical, Catalog No. 500151) Calculate Amount of PGD2 as Below • Calculated % Positive control according to the equation below; % Positive control=(Compound value−Negative control)/(Positive value−Negative control value)×100. […]

Sequence of human h-PGDS (O60760 whole entry): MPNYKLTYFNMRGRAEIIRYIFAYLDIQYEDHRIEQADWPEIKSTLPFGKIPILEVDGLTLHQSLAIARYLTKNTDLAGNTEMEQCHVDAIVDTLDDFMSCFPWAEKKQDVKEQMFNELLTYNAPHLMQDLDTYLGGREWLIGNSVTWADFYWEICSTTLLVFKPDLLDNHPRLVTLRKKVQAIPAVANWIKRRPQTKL

| SMILES | pIC50 |
| --- | --- |
| Cc1nc(-c2ccccn2)ncc1C(=O)Nn1cc(C)c2cc(F)ccc21 [Example 3, 4-Methyl-2-pyridin-2-yl-pyrimidine-5-carboxylic acid (5-fluoro-3-methyl-indol-1-yl)amide] | 8.15 |
| Cc1cn(NC(=O)c2cnc(-c3cccnc3)nc2)c2ccc(F)cc12 [Example 6, 2-Pyridin-3-yl-pyrimidine-5-carboxylic acid (5-fluoro-3-methyl-indol-1-yl)-amide] | 8.00 |
| Cc1nc(-c2cccc(F)c2)ncc1C(=O)Nn1cc(C)c2cc(F)ccc21 [Example 10, 2-(3-Fluoro-phenyl)-4-methyl-pyrimidine-5-carboxylic acid (5-fluoro-3-methyl-indol-1-yl)-amide] | 8.22 |
| Cc1nc(-c2ccccn2)ncc1C(=O)Nn1c(C)cc2cc(F)ccc21 [Example 12, 4-Methyl-2-pyridin-2-yl-pyrimidine-5-carboxylic acid (5-fluoro-2-methyl-indol-1-yl)-amide] | 8.10 |
| O=C(NN1CCN(C(=O)OCc2ccccc2)CC1=O)c1cnc(-c2ccccc2)nc1 [Example 20, 3-Oxo-4-[(2-phenyl-pyrimidine-5-carbonyl)-amino]-piperazine-1-carboxylic acid benzyl ester] | 6.99 |
| O=C(Nn1ccc2c(F)cccc21)c1cnc(-c2cccc(F)c2)nc1 [Example 31, 2-(3-Fluorophenyl)pyrimidine-5-carboxylic acid-(4-fluoroindol-1-yl)amide] | 7.96 |
| Cc1nc(-c2cccc(F)c2)ncc1C(=O)Nn1cc(-c2nnn[nH]2)c2cc(F)ccc21 [Example 42, 2-(3-Fluoro-phenyl)-4-methyl-pyrimidine-5-carboxylic acid [5-fluoro-3-(1H-tetrazol-5-yl)-indol-1-yl]-amide] | 8.30 |
| O=C(Nn1cnnc1)c1cnc(-c2ccccc2)nc1 [Example 43, 2-Phenyl-pyrimidine-5-carboxylic acid [1,2,4]triazol-4-ylamide] | 6.58 |
| O=C(NNc1ccccc1F)c1cnc(-c2ccccc2)nc1 [Example 45, 2-Phenyl-pyrimidine-5-carboxylic acid N′-(2-fluoro-phenyl)-hydrazide] | 7.92 |
| O=C(NN1CCOCC1=O)c1cnc(-c2ccccc2)nc1 [Example 47, 2-Phenyl-pyrimidine-5-carboxylic acid (3-oxo-morpholin-4-yl)-amide] | 7.26 |
| Cc1nc(-c2ncc(C(=O)NN3CCN(CCO)CC3)cn2)no1 [Example 48, 2-(5-Methyl-[1,2,4]oxadiazol-3-yl)-pyrimidine-5-carboxylic acid [4-(2-hydroxy-ethyl)-piperazin-1-yl]-amide] | 6.34 |
| O=C(NN1CCOCC1)c1cnc(C(=O)c2ccccc2)nc1 [Example 50, 2-Benzoyl-pyrimidine-5-carboxylic acid morpholin-4-ylamide] | 6.47 |
| O=C(NN1CCN(CCO)CC1)c1cnc(C(=O)c2ccccc2)nc1 [Example 51, 2-Benzoyl-pyrimidine-5-carboxylic acid [4-(2-hydroxy-ethyl)-piperazin-1-yl]-amide] | 6.18 |
| O=C(NN1CCCCC1=O)c1cnc(-c2ccccc2)nc1 [Example 56, 2-Phenyl-pyrimidine-5-carboxylic acid N′-(2-oxo-piperidin-1-yl)-amide] | 7.26 |
| CN(NC(=O)c1cnc(-c2ccccc2)nc1)C1CCCCC1 [Example 57, 2-Phenyl-pyrimidine-5-carboxylic acid N′-cyclohexyl-N′-methyl-hydrazide] | 6.83 |
| O=C(NN1CCOCC1)c1cnc(Oc2ccccc2)nc1 [Example 58, 2-Phenyoxy-pyrimidine-5-carboxylic acid N′-morpholin-4-yl-amide] | 6.64 |
| COc1cccc(-c2ncc(C(=O)NN3CC(C)=NNC3=O)cn2)c1 [Example 59, 2-(3-Methoxy-phenyl)-pyrimidine-5-carboxylic acid (6-methyl-3-oxo-2,5-dihydro-3H-[1,2,4]triazin-4-yl)-amide] | 6.76 |
| O=C(Nn1cc(Br)c(=O)[nH]c1=O)c1cnc(-c2ccccc2)nc1 [Example 72, 2-Phenyl-pyrimidine-5-carboxylic acid (5-bromo-2,4-dioxo-3,4-dihydro-2H-pyrimidin-1-yl)-amide] | 6.97 |
| O=C(NN1CC(CN2CCOCC2)OC1=O)c1cnc(-c2ccccc2)nc1 (stereo not drawn) [Example 75, 2-Phenyl-pyrimidine-5-carboxylic acid (5-morpholin-4-ylmethyl-2-oxo-oxazolidin-3-yl)-amide] | 7.70 |
| O=C(NN1CCOC1=O)c1cnc(-c2ccccc2)nc1 [Example 77, 2-Phenyl-pyrimidine-5-carboxylic acid (2-oxo-oxazolidin-3-yl)-amide] | 7.31 |
| O=C(NN1CCc2ccccc21)c1cnc(-c2ccccc2)nc1 [Example 82, 2-Phenyl-pyrimidine-5-carboxylic acid (2,3-dihydro-indol-1-yl)-amide] | 8.70 |
| O=C(NN1CCN(C2CCOC2=O)CC1)c1cnc(-c2ccccc2)nc1 (stereo not drawn) [Example 87, 2-Phenyl-pyrimidine-5-carboxylic acid [4-(2-oxo-tetrahydro-furan-3-yl)-piperazin-1-yl]-amide] | 7.59 |
| O=C(NN1CCN(C(=O)C(F)(F)F)CC1)c1cnc(-c2ccccc2)nc1 [Example 88, 2-Phenyl-pyrimidine-5-carboxylic acid [4-(2,2,2-trifluoro-acetyl)-piperazin-1-yl]-amide] | 7.24 |
| O=C(NN1CCN(CC(=O)N2CCOCC2)CC1)c1cnc(-c2ccccc2)nc1 [Example 90, 2-Phenyl-pyrimidine-5-carboxylic acid [4-(2-morpholin-4-yl-2-oxo-ethyl)-piperazin-1-yl]-amide] | 6.08 |
| O=C(NN1CCc2ccccc21)c1cnc(-c2cccc(F)c2)nc1 [Example 91, 2-(3-Fluoro-phenyl)-pyrimidine-5-carboxylic acid (2,3-dihydro-indol-1-yl)-amide] | 8.52 |
| O=C(NN1CCCCC1)c1cnc(-c2cccc(F)c2)nc1 [Example 92, 2-(3-Fluoro-phenyl)-pyrimidine-5-carboxylic acid piperadin-1-yl-amide] | 7.71 |
| Cc1nc(-c2ccccc2)ncc1C(=O)NN1CCc2ccccc21 [Example 95, 4-Methyl-2-phenyl-pyrimidine-5-carboxylic acid (2,3-dihydro-indol-1-yl)-amide] | 8.26 |
| CC1Cc2ccccc2N1NC(=O)c1cnc(-c2ccccc2)nc1 (stereo not drawn) [Example 99, 2-Phenyl-pyrimidine-5-carboxylic acid (2-methyl-2,3-dihydro-indol-1-yl)-amide] | 8.40 |
| CC1Cc2ccccc2N1NC(=O)c1cnc(-c2cccc(F)c2)nc1 (stereo not drawn) [Example 100, 2-(3-Fluoro-phenyl)-pyrimidine-5-carboxylic acid (2-methyl-2,3-dihydro-indol-1-yl)-amide] | 8.40 |
| O=C(Nn1ccc2cc(F)ccc21)c1cnc(-c2ccccc2)nc1 [Example 102, 2-Phenyl-pyrimidine-5-carboxylic acid (5-fluoro-indol-1-yl)-amide] | 8.52 |

Reference: patent US8258130B2 (Sanofi, priority 2007, dated 2012)
